Earlier results in patent US20240016859A1, “MICROENCAPSULATED AND CHROMOSOME INTEGRATED COMPOSITIONS FOR L-DOPA MICROBIOME THERAPY” (Iowa State University Research Foundation, Inc., priority 2020, published 2024).

N[C@@H](Cc1ccc(O)c(O)c1)C(=O)O [Levodopa, (−)-L-a-amino-b-(3,4-dihydroxybenzene)propanoic acid]
solubility in water: slightly soluble
